Source: PubChem BioAssay (NCI)
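Values below derive from 48-hour exposures of cells grown in 96-well plates, with endpoints linearly interpolated between the two concentrations bracketing the appropriate inhibition level. Abbreviation: GI50, concentration required for 50% inhibition of growth. At the TGI there is no net growth.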

How the values were obtained:
Assay in all cases: NCI anticancer screen, dose series, 48 h
786-0 renal = system: 786-0 renal
A498 renal = system: A498 renal
A549 NSCLC = system: A549 NSCLC
ACHN renal = system: ACHN renal
BT-549 breast = system: BT-549 breast
CAKI-1 renal = system: CAKI-1 renal
CCRF-CEM leukemia = system: CCRF-CEM leukemia
COLO 205 colon = system: COLO 205 colon
DU-145 prostate = system: DU-145 prostate
EKVX NSCLC = system: EKVX NSCLC
HCC-2998 colon = system: HCC-2998 colon
HCT-116 colon = system: HCT-116 colon
HCT-15 colon = system: HCT-15 colon
HL-60(TB) leukemia = system: HL-60(TB) leukemia
HOP-62 NSCLC = system: HOP-62 NSCLC
HOP-92 NSCLC = system: HOP-92 NSCLC
HS 578T breast = system: HS 578T breast
HT29 colon = system: HT29 colon
IGROV1 ovarian = system: IGROV1 ovarian
K-562 leukemia = system: K-562 leukemia
KM12 colon = system: KM12 colon
LOX IMVI melanoma = system: LOX IMVI melanoma
M14 melanoma = system: M14 melanoma
MALME-3M melanoma = system: MALME-3M melanoma
MCF7 breast = system: MCF7 breast
MDA-MB-231 breast = system: MDA-MB-231 breast
MDA-MB-435 = system: MDA-MB-435
MOLT-4 leukemia = system: MOLT-4 leukemia
NCI-H226 lung = system: NCI-H226 lung
NCI-H23 lung = system: NCI-H23 lung
NCI-H460 lung = system: NCI-H460 lung
NCI-H522 lung = system: NCI-H522 lung
NCI/ADR-RES ovarian = system: NCI/ADR-RES ovarian
OVCAR-3 ovarian = system: OVCAR-3 ovarian
OVCAR-4 ovarian = system: OVCAR-4 ovarian
OVCAR-5 ovarian = system: OVCAR-5 ovarian
OVCAR-8 ovarian = system: OVCAR-8 ovarian
PC-3 prostate = system: PC-3 prostate
RPMI-8226 leukemia = system: RPMI-8226 leukemia
RXF 393 renal = system: RXF 393 renal
SF-268 CNS = system: SF-268 CNS
SF-295 CNS = system: SF-295 CNS
SF-539 CNS = system: SF-539 CNS
SK-MEL-2 melanoma = system: SK-MEL-2 melanoma
SK-MEL-28 melanoma = system: SK-MEL-28 melanoma
SK-MEL-5 melanoma = system: SK-MEL-5 melanoma
SK-OV-3 ovarian = system: SK-OV-3 ovarian
SN12C renal = system: SN12C renal
SNB-19 CNS = system: SNB-19 CNS
SNB-75 CNS = system: SNB-75 CNS
SR leukemia = system: SR leukemia
SW-620 colon = system: SW-620 colon
T-47D breast = system: T-47D breast
TK-10 renal = system: TK-10 renal
U251 CNS = system: U251 CNS
UACC-257 melanoma = system: UACC-257 melanoma
UACC-62 melanoma = system: UACC-62 melanoma
UO-31 renal = system: UO-31 renal

With `CCN1CCN(Cc2ccc(NC(=O)c3nc4ccc5[nH]ncc5c4c4c3CCCC4)cc2C(F)(F)F)CC1` the GI50 (786-0 renal) was 886 nM, the TGI (786-0 renal) was 1650 nM and the GI50 (A498 renal) was 6890 nM. The TGI (A498 renal) was 14400 nM, the GI50 (A549 NSCLC) was 1320 nM and the TGI (A549 NSCLC) was 3800 nM. For the same molecule, the GI50 (ACHN renal) was 861 nM, the TGI (ACHN renal) was 1560 nM and the GI50 (BT-549 breast) was 6330 nM. The TGI (BT-549 breast) was 13000 nM, the GI50 (CAKI-1 renal) was 976 nM and the TGI (CAKI-1 renal) was 2420 nM. It also gave a GI50 (CCRF-CEM leukemia) of 1150 nM, a TGI (CCRF-CEM leukemia) of 3260 nM and a GI50 (COLO 205 colon) of 861 nM. For the same molecule, the TGI (COLO 205 colon) was 1680 nM, the GI50 (DU-145 prostate) was 1250 nM and the TGI (DU-145 prostate) was 2980 nM. The GI50 (EKVX NSCLC) was 2090 nM, the TGI (EKVX NSCLC) was 8810 nM and the GI50 (HCC-2998 colon) was 816 nM. The TGI (HCC-2998 colon) was 1590 nM, the GI50 (HCT-116 colon) was 870 nM and the TGI (HCT-116 colon) was 1700 nM. It also gave a GI50 (HCT-15 colon) of 950 nM, a TGI (HCT-15 colon) of 1960 nM and a GI50 (HL-60(TB) leukemia) of 983 nM. For the same molecule, the TGI (HL-60(TB) leukemia) was 1990 nM, the GI50 (HOP-62 NSCLC) was 815 nM and the TGI (HOP-62 NSCLC) was 1650 nM. For the same molecule, the GI50 (HOP-92 NSCLC) was 1610 nM, the TGI (HOP-92 NSCLC) was 7650 nM and the GI50 (HS 578T breast) was 969 nM. The TGI (HS 578T breast) was 2130 nM, the GI50 (HT29 colon) was 923 nM and the TGI (HT29 colon) was 1910 nM. The GI50 (IGROV1 ovarian) was 892 nM, the TGI (IGROV1 ovarian) was 1720 nM and the GI50 (K-562 leukemia) was 827 nM. It also gave a TGI (K-562 leukemia) of 2120 nM, a GI50 (KM12 colon) of 988 nM and a TGI (KM12 colon) of 1940 nM. It also gave a GI50 (LOX IMVI melanoma) of 836 nM, a TGI (LOX IMVI melanoma) of 1550 nM and a GI50 (M14 melanoma) of 885 nM. The TGI (M14 melanoma) was 1800 nM, the GI50 (MALME-3M melanoma) was 827 nM and the TGI (MALME-3M melanoma) was 1590 nM. The GI50 (MCF7 breast) was 884 nM, the TGI (MCF7 breast) was 1840 nM and the GI50 (MDA-MB-231 breast) was 879 nM. The TGI (MDA-MB-231 breast) was 1660 nM, the GI50 (MDA-MB-435) was 918 nM and the TGI (MDA-MB-435) was 1670 nM. It also gave a GI50 (MOLT-4 leukemia) of 1010 nM, a TGI (MOLT-4 leukemia) of 2280 nM and a GI50 (NCI-H226 lung) of 2980 nM. It also gave a TGI (NCI-H226 lung) of 13600 nM, a GI50 (NCI-H23 lung) of 1760 nM and a TGI (NCI-H23 lung) of 7210 nM. The GI50 (NCI-H460 lung) was 935 nM, the TGI (NCI-H460 lung) was 1780 nM and the GI50 (NCI-H522 lung) was 882 nM. For the same molecule, the TGI (NCI-H522 lung) was 1850 nM, the GI50 (NCI/ADR-RES ovarian) was 1080 nM and the TGI (NCI/ADR-RES ovarian) was 2820 nM. For the same molecule, the GI50 (OVCAR-3 ovarian) was 997 nM, the TGI (OVCAR-3 ovarian) was 1920 nM and the GI50 (OVCAR-4 ovarian) was 1070 nM. For the same molecule, the TGI (OVCAR-4 ovarian) was 2630 nM, the GI50 (OVCAR-5 ovarian) was 1480 nM and the TGI (OVCAR-5 ovarian) was 5460 nM. For the same molecule, the GI50 (OVCAR-8 ovarian) was 1010 nM, the TGI (OVCAR-8 ovarian) was 2050 nM and the GI50 (PC-3 prostate) was 1300 nM. The TGI (PC-3 prostate) was 4200 nM, the GI50 (RPMI-8226 leukemia) was 1070 nM and the TGI (RPMI-8226 leukemia) was 2610 nM. It also gave a GI50 (RXF 393 renal) of 738 nM, a TGI (RXF 393 renal) of 1430 nM and a GI50 (SF-268 CNS) of 2300 nM. The TGI (SF-268 CNS) was 9200 nM, the GI50 (SF-295 CNS) was 888 nM and the TGI (SF-295 CNS) was 1800 nM. The GI50 (SF-539 CNS) was 870 nM, the TGI (SF-539 CNS) was 1600 nM and the GI50 (SK-MEL-2 melanoma) was 850 nM. It also gave a TGI (SK-MEL-2 melanoma) of 1900 nM, a GI50 (SK-MEL-28 melanoma) of 899 nM and a TGI (SK-MEL-28 melanoma) of 1650 nM. It also gave a GI50 (SK-MEL-5 melanoma) of 903 nM, a TGI (SK-MEL-5 melanoma) of 1630 nM and a GI50 (SK-OV-3 ovarian) of 7250 nM. For the same molecule, the TGI (SK-OV-3 ovarian) was 14200 nM, the GI50 (SN12C renal) was 865 nM and the TGI (SN12C renal) was 1630 nM. It also gave a GI50 (SNB-19 CNS) of 931 nM, a TGI (SNB-19 CNS) of 2010 nM and a GI50 (SNB-75 CNS) of 1060 nM. The TGI (SNB-75 CNS) was 7170 nM, the GI50 (SR leukemia) was 1190 nM and the TGI (SR leukemia) was 2650 nM. It also gave a GI50 (SW-620 colon) of 969 nM, a TGI (SW-620 colon) of 1890 nM and a GI50 (T-47D breast) of 854 nM. The TGI (T-47D breast) was 1920 nM, the GI50 (TK-10 renal) was 1830 nM and the TGI (TK-10 renal) was 6790 nM. For the same molecule, the GI50 (U251 CNS) was 883 nM, the TGI (U251 CNS) was 1630 nM and the GI50 (UACC-257 melanoma) was 938 nM. The TGI (UACC-257 melanoma) was 1840 nM, the GI50 (UACC-62 melanoma) was 922 nM and the TGI (UACC-62 melanoma) was 1880 nM. The GI50 (UO-31 renal) was 729 nM and the TGI (UO-31 renal) was 1400 nM.
